The values that follow come from US12428386B2, “Sphingosine 1 phosphate receptor modulators” (RECEPTOS LLC, priority 2020, dated 2025).

One test concerns the target T1, S1P1 (Homo sapiens, UniProt P21453).
T1 construct: expressed in transfected cells; host or cells: CHO cell membranes
Briefly: [35S]-GTPγS binding assay, CHO-S1P receptor membranes, S1P1. It is filed as biochemical. As to conditions: CHO-S1P receptor membrane; for Emax: control S1P, read-out: S1P1 % Efficacy. The protocol: (§1) Binding assays for [^35S]-GTPγS were performed in 96-well non-binding surface plates with a final volume of 200 μL. The test compounds were serial diluted in DMSO and added to assay plates using a Tecan D300E digital printer with a total volume of 0.4 μL. The control sphingosine-1-phosphate (S1P) was prepared separately by preparing a 400 μM stock solution from a 100 nmol pellet of S1P in 10 mM Na2CO3 with 2% β-cyclodextrin. The serial dilution of S1P was done using complete assay buffer (20 mM HEPES, 10 mM MgCl2, 100 mM NaCl, 1 mM EDTA, 0.1% fatty acid free bovine serum albumin [BSA], and 30 μg/mL saponin, pH7.4) and transferred to wells already containing 0.4 μL DMSO. All the wells were then loaded to a total volume of 40 μL of complete assay buffer, except the non-specific binding (NSB) wells. For NSB wells, 40 μL/well of 50 μM GTPγS (Sigma Aldrich, cat# G8634, St. Louis, MO) was added to wells containing 0.4 μL of DMSO. The assay was started by the addition of 120 μL/well of CHO-S1P receptor membrane solution containing 40 μg/mL of membrane protein, 16.67 μM guanosine diphosphate (GDP; Sigma Aldrich, cat# G7127, St. Louis, MO), and 2.5 mg/mL of WGA PVT SPA beads in complete buffer. Assay plates were then sealed and incubated at room temperature with gentle agitation for 30 minutes. Next, 40 μL/well of 1 nM of [^35S]-GTPγS (PerkinElmer, cat# NEG030×250UC, Waltham, MA) in basic assay buffer (20 mM HEPES, 10 mM MgCl2, 100 mM NaCl, and 1 mM EDTA, pH7.4) was added to the assay plates to yield a final concentration of 200 pM and the plates were further incubated for 40 minutes at room temperature with gentle agitation. The assay was terminated by centrifugation of the plates at 1000 rpm for 3 minutes using an Eppendorf 5810R centrifuge (Eppendorf, Hamburg, Germany) and G protein bound radioactivity was quantitated using a MicroBeta2 microplate scintillation counter (PerkinElmer, Waltham, MA).
On the technique in general: GTPγS resists hydrolysis and so accumulates on activated G proteins.

The next test concerns the target T2, S1P5 (Homo sapiens, UniProt Q9H228).
T2 construct: expressed in transfected cells; host or cells: CHO cell membranes
In words: [35S]-GTPγS binding assay, CHO-S1P receptor membranes, S1P5. It is filed as biochemical. To be noted: CHO-S1P receptor membrane; for Emax: control S1P, read-out: S1P5 % Efficacy. The protocol: as §1

SMILES strings stand for the structures.

T2 sequence (Q9H228 whole entry, species assumed): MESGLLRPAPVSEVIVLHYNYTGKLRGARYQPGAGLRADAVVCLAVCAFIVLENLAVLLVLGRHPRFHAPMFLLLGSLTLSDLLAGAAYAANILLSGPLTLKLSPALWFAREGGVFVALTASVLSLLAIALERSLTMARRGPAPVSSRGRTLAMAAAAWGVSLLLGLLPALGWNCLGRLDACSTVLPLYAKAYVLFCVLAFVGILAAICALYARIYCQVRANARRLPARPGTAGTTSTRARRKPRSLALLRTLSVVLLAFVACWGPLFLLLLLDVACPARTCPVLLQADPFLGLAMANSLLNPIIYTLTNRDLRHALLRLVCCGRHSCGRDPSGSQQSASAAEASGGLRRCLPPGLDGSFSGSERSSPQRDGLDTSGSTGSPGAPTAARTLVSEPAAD
T1 sequence (P21453 whole entry, species assumed): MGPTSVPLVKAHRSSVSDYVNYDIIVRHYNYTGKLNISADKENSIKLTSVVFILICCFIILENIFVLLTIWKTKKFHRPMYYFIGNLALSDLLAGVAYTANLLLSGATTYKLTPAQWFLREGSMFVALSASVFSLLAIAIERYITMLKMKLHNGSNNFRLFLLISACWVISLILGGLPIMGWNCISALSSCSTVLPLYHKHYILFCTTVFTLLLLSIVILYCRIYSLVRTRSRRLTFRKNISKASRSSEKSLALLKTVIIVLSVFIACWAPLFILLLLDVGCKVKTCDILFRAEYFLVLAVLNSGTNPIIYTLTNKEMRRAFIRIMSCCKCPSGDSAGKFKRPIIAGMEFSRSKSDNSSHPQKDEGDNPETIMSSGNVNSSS

Broadly, the EC50 is the concentration at which the effect is half-maximal. Lower therefore signals a more potent agent. Regarding `COC1=CCc2c1cccc2-c1noc(-c2ccc(OC(C)C)c(C#N)c2)n1` [compound 2, 2-isopropoxy-5-(3-(3-methoxy-1H-inden-7-yl)-1,2,4-oxadiazolyl)benzonitrile], on S1P1, a half-maximal response (EC50) required 18 nM and the Emax was determined as 87%. In addition, on S1P5, the EC50 was 148 nM and the Emax is 33%.
On the same counts, the results for `CCOC1=CCc2c1cccc2-c1noc(-c2ccc(OC(C)C)c(C#N)c2)n1` [compound 3, 5-(3-(3-ethoxy-1H-inden-7-yl)-1,2,4-oxadiazol-5-yl)-2-isopropoxy-benzonitrile] are 32 nM, 92%, 270 nM and 68%.
On the same counts, the results for `CC(C)OC1=CCc2c1cccc2-c1noc(-c2ccc(OC(C)C)c(C#N)c2)n1` [compound 4, 2-isopropoxy-5-(3-(3-isopropoxy-1H-inden-7-yl)-1,2,4-oxadiazol-5-yl)-benzonitrile] are 7 nM, 86%, 151 nM and 79%.
